Literature values, collected in patent publication US9131678B1, “Ultraviolet strategy for avian repellency” (The United States of America, as represented by the …, priority 2009, dated 2015).

Experiments:
Blackbirds = conditions: rice seeds treated with 10,000 ppm caffeine, field conditions; >80% of untreated rice seeds consumed
[1] = test system: male red-winged blackbirds; conditions: 2,500 ppm caffeine, male red-winged blackbirds in captivity

In the case of `Cn1c(=O)c2c(ncn2C)n(C)c1=O` [caffeine], the rice seeds consumed (Blackbirds) is given as under 10% and the “reduction of rice consumption” value [1] is given as 76%.
